Measurements published in patent US9353100B2, “Macrocyclic serine protease inhibitors, pharmaceutical compositions thereof, and their use for treating HCV infections” (Idenix Pharmaceuticals LLC, priority 2011, dated 2016).
Like-named read-outs stand apart in the source and are kept apart here.

Tests used:
HCV NS3-NS4A protease 1b = target: T1, HCV NS3-NS4A protease 1b (Hepatitis C virus genotype 1b, UniProt Q9WMX2); assay: HCV protease assay (FRET peptide), genotype 1b; format: biochemical
T1 construct: HCV NS3-NS4A protease, which was produced according to the method of Taremi et al; made in house
T1 sequence (Q9WMX2 1658-1711): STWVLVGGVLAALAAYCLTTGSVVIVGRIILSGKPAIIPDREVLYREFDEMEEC
T1 sequence (Q9WMX2 1027-1208): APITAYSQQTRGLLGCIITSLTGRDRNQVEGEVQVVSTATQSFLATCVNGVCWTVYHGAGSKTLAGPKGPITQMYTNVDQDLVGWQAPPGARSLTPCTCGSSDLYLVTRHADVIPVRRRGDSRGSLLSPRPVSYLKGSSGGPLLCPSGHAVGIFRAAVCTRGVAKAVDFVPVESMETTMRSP
Description: (§1) General procedure: Measurement of the inhibitory effect of compounds on HCV protease activity was performed using the HiLyte Fluor™ TR/QXL™ 610 FRET peptide from AnaSpec, Inc. (San Jose, Calif.) under conditions developed in-house using 2-3 nM HCV NS3-NS4A protease, which was produced according to the method of Taremi et al. (Protein Science, 1998, 7, 2143-2149). The compounds were tested at a variety of concentrations in assay buffer containing a final DMSO concentration of 5%. Reactions were allowed to proceed for 60 min at 30° C. and fluorescence measurements were recorded with a PerkinElmer Victor^3 V 1420 Multilabel Counter. The IC50 values were determined from the percent inhibition versus concentration data using a sigmoidal non-linear regression analysis based on four parameters with XLfit 4.1 software.

[1] = system: HCV genotype 1a H77 strain subgenomic luciferase replicon (H1a-luc) in Huh-7 cells; assay: HCV luciferase replicon assay, genotype 1a (H1a-luc); format: cell-based; settings: for FS (1a/1b): EC50 against genotype 1a HCV divided by EC50 against genotype 1b, replicon luciferase assay; for EC50: Hepatitis C virus, read-out: EC50 Against Relpicon 1a
Description: (§2) General procedure: The HCV luciferase replicon assay measures the ability of a test compound to inhibit HCV replication in cell culture after 3 days of treatment in a human hepatoma cell line (Huh-7) bearing a HCV replicon containing a luciferase-neomycin phosphotransferase fusion gene. The inhibition of HCV replication was measured by quantification of luciferase protein expression. Briefly, Huh-7 cells containing either the HCV genotype 1a H77 strain or genotype 1b Con1 strain subgenomic luciferase replicon (H1a-luc or Zluc, respectively) were grown in DMEM containing glucose, L-glutamine and sodium pyruvate, 10% fetal bovine serum (FBS), 100 IU/mL penicillin, 100 μg/mL streptomycin, 2 mM GlutaMAX, non-essential amino acids and 0.25 (H1a-luc) or 0.5 (Zluc) mg/mL G418. GlutaMAX was obtained from Invitrogen, Corp.; all other media reagents were obtained from Mediatech, Inc. For dose-response testing, the cells were seeded in 96-well plates at 1×10^4 (H1a-luc) or 7.5×10^3 (Zluc) cells/well in a volume of 50 μL and incubated at 37° C./5% CO2. Three hours after plating, 50 μL of ten 5-fold serial dilutions of compound were added, and cell cultures were incubated at 37° C./5% CO2 for 72 hours. In all cases, Huh-7 cells lacking the HCV replicon served as negative control. To assess luciferase expression, the media/compound was removed from the plates and ONE-glo Luciferase assay reagent (Promega) was added to each well. The assay plates were shaken for 3 minutes at room temperature and luciferase activity for each well was measured with a 1 sec read time on the Victor^3V multilabel counter using a 700 nm cut-off filter (Perkin Elmer). EC50 values were calculated from dose response curves from the resulting best-fit equations determined by Microsoft Excel and XLfit 4.1 software.

[2] = system: HCV genotype 1b Con1 strain subgenomic luciferase replicon (Zluc) in Huh-7 cells; assay: HCV luciferase replicon assay, genotype 1b (Zluc); format: cell-based; settings: Hepatitis C virus, read-out: EC50 Against Relpicon 1b
Description: as §2

[3] = Cytotoxicity evaluation, Cell Titer 96 AQueous One Solution; format: cell-based, human; settings: human; Zluc cells, cellular viability
Description: For cytotoxicity evaluation, Zluc cells were treated with compounds as described above and cellular viability was monitored using the Cell Titer 96 AQueous One Solution Cell Proliferation Assay (Promega). Plates were then read at 490 nm in a Victor^3V 1420 multilabel counter (Perkin Elmer) and CC50 concentrations were determined using Microsoft Excel and XLfit 4.1 software.

HCV NS3-NS4A protease 1a = target: T2, HCV NS3-NS4A protease 1a (Hepatitis C virus genotype 1a, UniProt P27958); assay: HCV protease assay (FRET peptide), genotype 1a; format: biochemical; settings: genotype 1a protease; 60 min at 30° C.; read-out: IC50 Against HS3/4A 1a
T2 construct: HCV NS3-NS4A protease, which was produced according to the method of Taremi et al; made in house
T2 sequence (P27958 1027-1208): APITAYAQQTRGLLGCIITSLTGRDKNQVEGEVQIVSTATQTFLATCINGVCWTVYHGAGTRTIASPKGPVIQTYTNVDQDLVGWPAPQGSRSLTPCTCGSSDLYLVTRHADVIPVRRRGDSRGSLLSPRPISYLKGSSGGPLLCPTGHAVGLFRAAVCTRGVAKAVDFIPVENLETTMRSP
T2 sequence (P27958 1658-1711): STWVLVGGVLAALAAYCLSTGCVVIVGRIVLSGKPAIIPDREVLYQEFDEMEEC
Description: as §1

HCV NS3-NS4A protease 2a = target: T3, HCV NS3-NS4A protease 2a (Hepatitis C virus genotype 2a, UniProt Q99IB8); assay: HCV protease assay (FRET peptide), genotype 2a; format: biochemical; settings: genotype 2a protease; 60 min at 30° C.; read-out: IC50 Against HS3/4A 2a
T3 construct: HCV NS3-NS4A protease, which was produced according to the method of Taremi et al; made in house
T3 sequence (Q99IB8 1662-1715): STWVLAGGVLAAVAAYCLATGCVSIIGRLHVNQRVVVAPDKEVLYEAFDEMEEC
T3 sequence (Q99IB8 1031-1212): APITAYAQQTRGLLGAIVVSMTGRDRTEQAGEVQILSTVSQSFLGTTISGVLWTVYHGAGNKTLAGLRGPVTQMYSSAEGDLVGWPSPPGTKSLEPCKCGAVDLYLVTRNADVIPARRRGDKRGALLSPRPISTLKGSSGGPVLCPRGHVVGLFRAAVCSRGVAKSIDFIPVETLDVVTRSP
Description: as §1

HCV NS3-NS4A protease 3a = target: T4, HCV NS3-NS4A protease 3a (Hepatitis C virus genotype 3a, UniProt Q81258); assay: HCV protease assay (FRET peptide), genotype 3a; format: biochemical
T4 construct: HCV NS3-NS4A protease, which was produced according to the method of Taremi et al; made in house
T4 sequence (Q81258 1664-1717): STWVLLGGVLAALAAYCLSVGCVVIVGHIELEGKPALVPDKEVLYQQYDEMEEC
T4 sequence (Q81258 1033-1214): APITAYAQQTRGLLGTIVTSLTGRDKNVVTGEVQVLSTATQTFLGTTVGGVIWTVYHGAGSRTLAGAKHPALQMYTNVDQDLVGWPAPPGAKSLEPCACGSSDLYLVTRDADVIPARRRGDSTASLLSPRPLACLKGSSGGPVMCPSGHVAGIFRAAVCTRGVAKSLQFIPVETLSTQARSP
Description: as §1

HCV NS3-NS4A protease 4a = target: T5, HCV NS3-NS4A protease 4a (Hepatitis C virus genotype 4a, UniProt O39929); assay: HCV protease assay (FRET peptide), genotype 4a; format: biochemical; settings: genotype 4a protease; 60 min at 30° C.; read-out: IC50 Against HS3/4A 4a
T5 construct: HCV NS3-NS4A protease, which was produced according to the method of Taremi et al; made in house
T5 sequence (O39929 1658-1711): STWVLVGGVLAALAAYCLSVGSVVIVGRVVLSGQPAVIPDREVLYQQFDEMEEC
T5 sequence (O39929 1027-1208): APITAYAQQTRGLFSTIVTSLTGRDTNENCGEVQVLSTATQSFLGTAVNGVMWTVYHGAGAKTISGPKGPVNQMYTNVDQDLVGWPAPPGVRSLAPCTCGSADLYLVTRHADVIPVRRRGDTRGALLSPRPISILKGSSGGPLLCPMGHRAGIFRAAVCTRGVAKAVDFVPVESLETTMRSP
Description: as §1

HCV NS3-NS4A protease 5a = target: T6, HCV NS3-NS4A protease 5a (Hepatitis C virus genotype 5a, UniProt O39928); assay: HCV protease assay (FRET peptide), genotype 5a; format: biochemical; settings: genotype 5a protease; 60 min at 30° C.; read-out: IC50 Against HS3/4A 5a
T6 construct: HCV NS3-NS4A protease, which was produced according to the method of Taremi et al; made in house
T6 sequence (O39928 1659-1712): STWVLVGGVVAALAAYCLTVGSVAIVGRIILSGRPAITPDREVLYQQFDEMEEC
T6 sequence (O39928 1028-1209): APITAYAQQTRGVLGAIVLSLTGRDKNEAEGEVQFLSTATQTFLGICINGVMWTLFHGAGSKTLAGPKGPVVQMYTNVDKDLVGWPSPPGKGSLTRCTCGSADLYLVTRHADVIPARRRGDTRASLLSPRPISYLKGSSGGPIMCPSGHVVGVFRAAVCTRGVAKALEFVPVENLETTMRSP
Description: as §1

HCV NS3-NS4A protease 6a = target: T7, HCV NS3-NS4A protease 6a (Hepatitis C virus genotype 6a, UniProt O39927); assay: HCV protease assay (FRET peptide), genotype 6a; format: biochemical; settings: genotype 6a protease; 60 min at 30° C.; read-out: IC50 Against HS3/4A 6a
T7 construct: HCV NS3-NS4A protease, which was produced according to the method of Taremi et al; made in house
T7 sequence (O39927 1031-1212): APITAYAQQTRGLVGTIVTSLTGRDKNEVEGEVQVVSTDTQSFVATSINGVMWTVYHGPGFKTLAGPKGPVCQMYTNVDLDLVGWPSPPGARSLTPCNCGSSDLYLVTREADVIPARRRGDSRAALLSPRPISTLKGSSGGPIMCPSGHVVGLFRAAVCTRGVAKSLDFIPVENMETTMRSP
T7 sequence (O39927 1662-1715): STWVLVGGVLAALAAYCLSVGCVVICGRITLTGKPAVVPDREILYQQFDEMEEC
Description: as §1

[4] = system: genotype 1b HCV replicon in Zluc cells; assay: Genotype 1b HCV replicon luciferase assay with 10% FCS or 45% human serum; format: cell-based; settings: EC50 in presence of 45% HS divided by EC50 in presence of 10% FCS
Description: as §2
In Table 1, the values of FS with 45% HS were determined using the genotype 1b HCV replicon luciferase screening assay using Zluc cells, except that activity in the presence of 10% fetal calf serum (FCS) or 45% human serum (HS) was determined in parallel. The fold shift (FS) with 45% HS is the EC50 value in the presence of 45% HS divided by the EC50 value in the presence of 10% FCS. FS (1a/1b) is the EC50 value against genotype 1a HCV divided by the EC50 value against the genotype 1b in the replicon luciferase screening assay.

[5] = genotype 1a H77 replicon, Huh-7 (H1a-luc), 72 hours
[6] = genotype 1b Con1 replicon, Huh-7 (Zluc), 72 hours

Structure (SMILES)	IC50 (HCV NS3-NS4A protease 1b; read-out: IC50 Against HS3/4A 1b, genotype 1b protease, 60 min at 30° C.)	FS (1a/1b) [1]	EC50 ([1]; Huh-7, 72 h)	EC50 ([2]; Huh-7, 72 h)	CC50 [3]	IC50 (HCV NS3-NS4A protease 1a)	IC50 (HCV NS3-NS4A protease 1b)	IC50 (HCV NS3-NS4A protease 2a)	IC50 (HCV NS3-NS4A protease 3a)	IC50 (HCV NS3-NS4A protease 4a)	IC50 (HCV NS3-NS4A protease 5a)	IC50 (HCV NS3-NS4A protease 6a)	EC50 [1, 5]	EC50 [2, 6]	FS with 45% HS [4]
CN1CCCC/C=C\[C@@H]2C[C@@]2(C(=O)NS(=O)(=O)C2(C)CC2)NC(=O)[C@@H]2C[C@@H](Oc3nc(-c4ccc(Cl)cc4)sc3-c3ccccc3)CC[C@H]2C1=O [Compound D104]	10 to 100 nM	188	> 10000 nM	10 to 100 nM	> 10000 nM										
COc1ccc2c(O[C@H]3CC[C@H]4C(=O)N(C)CCCC/C=C\[C@@H]5C[C@@]5(C(=O)NS(=O)(=O)C5(C)CC5)NC(=O)[C@@H]4C3)cc(-c3nc(C(C)C)cs3)nc2c1C [Compound A101, (1R,4R,6R,15R,18S)-1-methyl-cyclopropanesulfonic acid {18-[2-(4-isopropyl-thiazol-2-yl)-7-methoxy-8-methyl-quinolin-4-yloxy]-13-methyl-2,14-dioxo-3,13-diaza-tricyclo[13.4.0.0]nonadec-7-ene-4-carbonyl}-amide]		6			> 10000 nM	< 10 nM	< 10 nM	10 to 100 nM	100 to 1000 nM	< 10 nM	10 to 100 nM	< 10 nM	10 to 100 nM	< 10 nM	>40
CN1CCCC/C=C\[C@@H]2C[C@@]2(C(=O)NS(=O)(=O)C2(C)CC2)NC(=O)[C@@H]2C[C@@H](Oc3cc(-c4nc(C(F)(F)F)cs4)nc(-c4nc(C(F)(F)F)cs4)n3)CC[C@H]2C1=O [Compound C104, (1R,4R,6R,15R,18S)-1-methyl-cyclopropanesulfonic acid {18-[2,6-bis(4-trifluoromethyl-thiazol-2-yl)-pyrimidin-4-yloxy]-13-methyl-2,14-dioxo-3,13-diaza-tricyclo[13.4.0.0]nonadec-7-ene-4-carbonyl}-amide]		5			> 10000 nM		< 10 nM		10 to 100 nM				< 10 nM	< 10 nM	
Cc1csc(-c2cc(O[C@H]3CC[C@H]4C(=O)N(C)CCCC/C=C\[C@@H]5C[C@@]5(C(=O)NS(=O)(=O)C5(C)CC5)NC(=O)[C@@H]4C3)nc(-c3nc(C(F)(F)F)cs3)n2)n1 [Compound C101, (1R,4R,6R,15R,18S)-1-methyl-cyclopropanesulfonic acid {13-methyl-18-[6-(4-methyl-thiazol-2-yl)-2-(4-trifluoromethyl-thiazol-2-yl)-pyrimidin-4-yloxy]-2,14-dioxo-3,13-diaza-tricyclo[13.4.0.0]nonadec-7-ene-4-carbonyl}-amide]		7			> 10000 nM	< 10 nM	< 10 nM	< 10 nM	< 10 nM	< 10 nM	< 10 nM	< 10 nM	< 10 nM	< 10 nM	16
Cc1csc(-c2cc(O[C@H]3CC[C@H]4C(=O)N(C)CCCC/C=C\[C@@H]5C[C@@]5(C(=O)NS(=O)(=O)C5(C)CC5)NC(=O)[C@@H]4C3)cc(-c3nc(C(F)(F)F)cs3)n2)n1 [Compound C102, (1R,4R,6R,15R,18S)-1-methyl-cyclopropanesulfonic acid {13-methyl-18-[2-(4-methyl-thiazol-2-yl)-6-(4-trifluoromethyl-thiazol-2-yl)-pyridin-4-yloxy]-2,14-dioxo-3,13-diaza-tricyclo[13.4.0.0]nonadec-7-ene-4-carbonyl}-amide]		5			> 10000 nM		< 10 nM		< 10 nM				< 10 nM	< 10 nM	
CC(C)c1csc(-c2cc(O[C@H]3CC[C@H]4C(=O)N(C)CCCC/C=C\[C@@H]5C[C@@]5(C(=O)NS(=O)(=O)C5(C)CC5)NC(=O)[C@@H]4C3)nc(-c3nc(C(F)(F)F)cs3)n2)n1 [Compound C103, (1R,4R,6R,15R,18S)-1-methyl-cyclopropanesulfonic acid {18-[6-(4-isopropyl-thiazol-2-yl)-2-(4-trifluoromethyl-thiazol-2-yl)-pyrimidin-4-yloxy]-13-methyl-2,14-dioxo-3,13-diaza-tricyclo[13.4.0.0]nonadec-7-ene-4-carbonyl}-amide]		6			> 10000 nM		< 10 nM		< 10 nM				< 10 nM	< 10 nM	
C#Cc1csc(-c2cc(O[C@H]3CC[C@H]4C(=O)N(C)CCCC/C=C\[C@@H]5C[C@@]5(C(=O)NS(=O)(=O)C5(C)CC5)NC(=O)[C@@H]4C3)c3ccc(OC)c(C)c3n2)n1 [Compound 17a, (1R,4R,6R,15R,18S)-1-methyl-cyclopropanesulfonic acid {18-[2-(4-ethynyl-thiazol-2-yl)-7-methoxy-8-methyl-quinolin-4-yloxy]-13-methyl-2,14-dioxo-3,13-diaza-tricyclo[13.4.0.0]nonadec-7-ene-4-carbonyl}-amide, reference compound]		8			> 10000 nM	< 10 nM	< 10 nM	< 10 nM	10 to 100 nM	< 10 nM	< 10 nM	< 10 nM	< 10 nM	< 10 nM	29
CN1CCCC/C=C\[C@@H]2C[C@@]2(C(=O)NS(=O)(=O)C2(C)CC2)NC(=O)[C@@H]2C[C@@H](Oc3nc(-c4cccc(C(F)(F)F)c4)sc3-c3ccccc3)CC[C@H]2C1=O [Compound D101, (1R,4R,6R,15R,18S)-1-methyl-cyclopropanesulfonic acid {13-methyl-2,14-dioxo-18-[5-phenyl-2-(3-trifluoromethyl-phenyl)-thiazol-4-yloxy]-3,13-diaza-tricyclo[13.4.0.0]nonadec-7-ene-4-carbonyl}-amide]		147			> 10000 nM		10 to 100 nM		10 to 100 nM				1000 to 10000 nM	10 to 100 nM	
